Test results: US20240117385A1, “ENZYMES OF LUCIFERIN BIOSYNTHESIS AND USE THEREOF” (LIGHT BIO, INC., priority 2018, published 2024)

Tests used:
HEK293NT cells = assay: Luminescence of HEK293NT cells expressing hispidin hydroxylase and luciferase on adding hispidin; assay type: cell-based, human; conditions: hispidin 800 μg/ml, 24 hours after transfection
[1] = system: recombinant hispidin hydroxylase from Neonothopanus nambi; assay: HPLC analysis of hydroxylation by recombinant hispidin hydroxylase; assay type: biochemical; conditions: 0.2 μM substrate, 1 mM NADPH, 30 minutes
Description: The isolated recombinant hispidin hydroxylase from Neonothopanus nambi, obtained according to Example 4, was added to reaction mixtures comprising 1 mM of NADPH and 0.2 μM of hispidin, (E)-4-hydroxy-6-styryl-2H-pyran-2-one or (E)-4-hydroxy-6-(4-hydroxystyryl)-2H-pyran-2-one in 100 μl of the buffer (0.2 M of Na-phosphate buffer, 0.5 M of Na2SO4, 0.1% dodecylmaltoside (DDM) pH 8.0). In 30 minutes, the reaction mixture was analyzed by HPLC using synthetic luciferins as standards.

[2] = system: hispidin hydroxylase and luciferase fusion protein; assay: Bioluminescence of HEK293T cells expressing hispidin hydroxylase and luciferase fusion protein; assay type: cell-based, Neonothopanus nambi; conditions: 24 hours after transfection, 1 million of cells in 0.5 ml PBS; hispidin 10 μg per 1 million of cells
Excerpt: Humanized DNA sequences coding hispidin-hydroxylase and luciferase of Neonothopanus nambi, obtained according to Example 2, were operatively cross-linked to each other by flexible short peptide linker with amino acid sequence GGSGGSGGS (SEQ ID NOs:115). Nucleotide and amino acid sequences of the obtained fused protein are shown in SEQ ID NO 101 and 102. Nucleic acid coding fused protein was cloned into pEGFP-N1 vector (Clontech, USA) instead of EGFP gene under Cytomegaloviral promoter control. The obtained structure was transfected into HEK293T cells. Analogous vectors, comprising individual genes of hispidin hydroxylase and luciferase, were also co-transfected. Transfection was performed by transfection agent FuGENE HD (Promega, USA) according to the manufacturer's protocol. 24 hours after transfection 1 million of cells were resuspended in 0.5 ml of PBS, and luminescence without adding hispidin and with addition of hispidin (10 μg per 1 million of cells) was recorded by luminometer.

[3] = system: Neonothopanus nambi hispidin hydroxylase and luciferase; assay: Bioluminescence reaction of biosynthetic hispidin; assay type: biochemical; conditions: hispidin purified from fermenter medium by HPLC
Description: The obtained E. coli strain was used for producing hispidin. At the first step the bacteria were incubated in five 50 ml plastic tubes in LB medium within 10 hours at 200 rpm fluctuation at 37° C. 250 ml of the obtained culture were added to 3.3 litres of fermentation medium into a fermenter Biostat B5 (Braun, Germany) so that initial culture optical density at 600 nm was about 0.35. Fermentation medium comprised 10 g/l of peptone, 5 g/l of caffeic acid, 5 g/l of yeast extract, 10 g/l of NaCl, 25 g/l of glucose, 15 g/l of (NH4)2SO4, 2 g/l of KH2PO4, 2 g/l of MgSO4·7 H2O, 14.7 mg/l of CaCl2), 0.1 mg/l of thiamine, 1.8 mg/l and 0.1% of the solution composed of: EDTA 8 mg/l, CoCl2·6 H2O 2.5 mg/l, MnCl2·4H2O 15 mg/l, CuCl2·2H2O 1.5 mg/l, H3BO3 3 mg/l, Na2MoO4·2H2O 2.5 mg/l, Zn(CH3COO)2·2H2O 13 mg/l, iron (III) citrate 100 mg/l, thiamine hydrochloride 4.5 mg/l. Fermentation was carried out at 37° C., with 3 l/min aeration and 200 rpm mixing. After 25 hours of cultivation arabinose was added to the culture up to final concentration of 0.1 mM. pH was automatically controlled by adding of NH4OH, […] pH to 7.0. […]

activity in bioluminescence reaction [3]: active in bioluminescence reaction
SMILES: O=c1cc(O)cc(/C=C/c2ccc(O)c(O)c2)o1 [hispidin, (E)-6-(3,4-dihydroxystyryl)-4-hydroxy-2H-pyran-2-one]
luminescence intensity exceeding the signal from untransfected control cells (HEK293NT cells): more than by two orders of magnitude
HPLC detection of hydroxylated product [1]: occurrence of peaks corresponding to 3d position hydroxylated derivatives
cell luminescence on addition [2]: caused cell luminescence in green spectrum
